Results from patent publication US20260317314A1, “NITROGEN-CONTAINING HETEROCYCLIC COMPOUND AND USE THEREOF” (JIANGSU DEYUAN PHARMACEUTICAL CO.,LTD., priority 2023, published 2026).

What was measured:
[1] = In vivo pharmacokinetics study in rats; set-up: species or system SD rat; settings: rat, plasma, male SD rats, oral 2 mg/kg
[2] = In vivo pharmacokinetic study in cynomolgus monkeys; set-up: species or system cynomolgus monkey; settings: cynomolgus monkey, plasma, male cynomolgus monkeys, oral 1 mg/kg
[3] = Permeability test in MDR1-MDCKII monolayer cell model; assay type: in vitro ADME; settings: dog
Summary of the method: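 Bidirectional transport of 2 μM compound across 4–7-day MDR1-MDCKII monolayers in HBSS with 10 mM HEPES pH 7.40, DMSO below 1%, 2.5 h at 37 °C. Quantified by LC-MS/MS. Papp calculated from receiver accumulation; efflux ratio = Papp(B-A)/Papp(A-B).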

[4] = In vitro liver microsome metabolic stability study; assay type: in vitro ADME; settings: human liver microsomes 0.5 mg/mL, compound 1 μM, 37° C., up to 60 minutes; read-out: Intrinsic hepatic clearance CLint(liver)
Experimental: Stock solution: 10 mM in DMSO.
Only 54 μL of microsomal working solution, 6 μL of NADPH regeneration system working solution, and 180 μL of stop solution were added to the blank plate.
LC-MS/MS analysis was performed.

[5] = Plasma protein binding rate test, human (equilibrium dialysis); assay type: in vitro ADME; settings: 37° C.
Text: The sample was thoroughly mixed.

CYP1A2 = biological target: T1, CYP1A2 (Homo sapiens, UniProt P05177); assay: Human liver microsome CYP inhibition assay, CYP1A2; assay type: in vitro ADME; settings: role: inhibitor; human liver microsomes, probe substrate; read-out: CYP1A2 half maximal inhibitory concentration IC50
T1 construct: Mixed human liver microsomes (HLM) were purchased from Corning Inc; tissue Corning Inc; host or cells: mixed human liver microsomes (HLM)
T1 sequence (P05177 1-516): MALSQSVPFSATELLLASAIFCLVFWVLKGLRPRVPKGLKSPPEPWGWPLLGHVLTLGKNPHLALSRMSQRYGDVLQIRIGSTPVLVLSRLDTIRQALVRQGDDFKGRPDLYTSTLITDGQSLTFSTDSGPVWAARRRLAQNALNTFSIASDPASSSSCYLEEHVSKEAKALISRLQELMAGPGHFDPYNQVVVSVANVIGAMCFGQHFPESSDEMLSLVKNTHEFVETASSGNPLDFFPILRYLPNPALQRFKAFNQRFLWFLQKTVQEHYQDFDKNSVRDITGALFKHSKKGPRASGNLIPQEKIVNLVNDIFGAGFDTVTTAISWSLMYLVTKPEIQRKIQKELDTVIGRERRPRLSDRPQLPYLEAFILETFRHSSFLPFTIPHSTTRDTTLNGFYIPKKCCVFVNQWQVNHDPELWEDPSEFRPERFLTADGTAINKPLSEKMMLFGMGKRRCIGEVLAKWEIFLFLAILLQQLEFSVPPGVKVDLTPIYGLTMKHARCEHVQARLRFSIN
Experimental: (§1) Experimental objective: To evaluate the inhibitory activity of the test substance on human liver microsomal cytochrome P450 isoenzymes (CYP1A2, CYP2C9, CYP2C19, CYP2D6, CYP3A4) using a 5-in-1 probe substrate for CYP isoenzymes.
(§2) Mixed human liver microsomes (HLM) were purchased from Corning Inc. (Steuben, New York, USA) and stored at temperatures below −70° C. prior to use.
(§3) The working solution of the test substance, which had been diluted to a series of concentrations, was added to an incubation system containing human liver microsomes, probe substrates, and auxiliary factors of the circulatory system. A control containing solvent but no test substance served as an enzyme activity control (100%). The concentration of metabolites produced from probe substrates in the samples was determined using Liquid Chromatography-Tandem Mass Spectrometry (LC-MS/MS) method. Non-linear regression analysis of the average percentage activity of the test substance against its concentration was conducted using SigmaPlot (V.11). The IC50 values were calculated using a three-parameter or four-parameter inverse log equation.

CYP2C9 = biological target: T2, CYP2C9 (Homo sapiens, UniProt P11712); assay: Human liver microsome CYP inhibition assay, CYP2C9; assay type: in vitro ADME; settings: role: inhibitor; human liver microsomes, probe substrate; read-out: CYP2C9 half maximal inhibitory concentration IC50
T2 construct: Mixed human liver microsomes (HLM) were purchased from Corning Inc; tissue Corning Inc; host or cells: mixed human liver microsomes (HLM)
Experimental: as §1, §2, §3

CYP2C19 = biological target: T3, CYP2C19 (Homo sapiens, UniProt P33261); assay: Human liver microsome CYP inhibition assay, CYP2C19; assay type: in vitro ADME; settings: role: inhibitor; human liver microsomes, probe substrate; read-out: CYP2C19 half maximal inhibitory concentration IC50
T3 construct: Mixed human liver microsomes (HLM) were purchased from Corning Inc; tissue Corning Inc; host or cells: mixed human liver microsomes (HLM)
Experimental: as §1, §2, §3

CYP2D6 = biological target: T4, CYP2D6 (Homo sapiens, UniProt P10635); assay: Human liver microsome CYP inhibition assay, CYP2D6; assay type: in vitro ADME; settings: role: inhibitor; human liver microsomes, probe substrate; read-out: CYP2D6 half maximal inhibitory concentration IC50
T4 construct: Mixed human liver microsomes (HLM) were purchased from Corning Inc; tissue Corning Inc; host or cells: mixed human liver microsomes (HLM)
Experimental: as §1, §2, §3

CYP3A4 = biological target: T5, CYP3A4 (Homo sapiens, UniProt P08684); assay: Human liver microsome CYP inhibition assay, CYP3A4; assay type: in vitro ADME; settings: role: inhibitor; human liver microsomes, probe substrate; read-out: CYP3A4 half maximal inhibitory concentration IC50
T5 construct: Mixed human liver microsomes (HLM) were purchased from Corning Inc; tissue Corning Inc; host or cells: mixed human liver microsomes (HLM)
Experimental: as §1, §2, §3

T5 sequence (P08684 whole entry): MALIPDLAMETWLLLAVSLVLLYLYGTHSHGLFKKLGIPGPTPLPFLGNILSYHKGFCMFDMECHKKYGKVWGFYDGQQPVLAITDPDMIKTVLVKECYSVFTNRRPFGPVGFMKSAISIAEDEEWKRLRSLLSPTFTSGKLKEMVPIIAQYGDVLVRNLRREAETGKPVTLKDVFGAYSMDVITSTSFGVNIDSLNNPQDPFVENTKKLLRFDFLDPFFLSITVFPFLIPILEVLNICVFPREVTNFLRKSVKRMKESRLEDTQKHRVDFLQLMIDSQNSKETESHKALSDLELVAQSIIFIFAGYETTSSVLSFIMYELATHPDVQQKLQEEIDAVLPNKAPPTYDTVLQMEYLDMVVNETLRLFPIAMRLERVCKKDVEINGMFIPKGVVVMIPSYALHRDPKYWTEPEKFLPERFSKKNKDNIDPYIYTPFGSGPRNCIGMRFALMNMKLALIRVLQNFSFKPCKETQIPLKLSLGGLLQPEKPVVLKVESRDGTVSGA
T2 sequence (P11712 whole entry): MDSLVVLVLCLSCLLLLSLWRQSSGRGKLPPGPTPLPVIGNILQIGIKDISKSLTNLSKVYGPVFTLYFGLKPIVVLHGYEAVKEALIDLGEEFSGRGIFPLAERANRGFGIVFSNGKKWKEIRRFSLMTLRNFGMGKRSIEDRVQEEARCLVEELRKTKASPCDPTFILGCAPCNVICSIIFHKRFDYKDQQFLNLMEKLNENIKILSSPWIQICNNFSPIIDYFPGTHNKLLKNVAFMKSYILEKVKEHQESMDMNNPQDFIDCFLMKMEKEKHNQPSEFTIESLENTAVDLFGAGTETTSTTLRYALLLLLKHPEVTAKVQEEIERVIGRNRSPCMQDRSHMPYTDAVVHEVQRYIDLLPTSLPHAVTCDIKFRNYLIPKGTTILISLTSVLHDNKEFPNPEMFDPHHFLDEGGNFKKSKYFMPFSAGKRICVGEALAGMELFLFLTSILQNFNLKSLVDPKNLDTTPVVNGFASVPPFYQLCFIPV
T4 sequence (P10635 whole entry): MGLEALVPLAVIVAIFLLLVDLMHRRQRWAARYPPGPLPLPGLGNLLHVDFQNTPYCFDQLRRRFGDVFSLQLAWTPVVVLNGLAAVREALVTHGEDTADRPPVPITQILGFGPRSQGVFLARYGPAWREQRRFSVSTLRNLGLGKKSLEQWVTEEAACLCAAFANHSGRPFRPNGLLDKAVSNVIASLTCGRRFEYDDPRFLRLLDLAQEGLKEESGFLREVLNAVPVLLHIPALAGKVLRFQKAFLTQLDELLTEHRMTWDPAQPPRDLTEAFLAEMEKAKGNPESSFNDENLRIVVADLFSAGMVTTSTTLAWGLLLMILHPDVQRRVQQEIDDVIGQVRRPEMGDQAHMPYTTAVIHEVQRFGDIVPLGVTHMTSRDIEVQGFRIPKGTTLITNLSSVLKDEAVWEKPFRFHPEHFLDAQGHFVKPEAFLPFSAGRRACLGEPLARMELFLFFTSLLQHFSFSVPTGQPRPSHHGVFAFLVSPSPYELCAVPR
T3 sequence (P33261 whole entry): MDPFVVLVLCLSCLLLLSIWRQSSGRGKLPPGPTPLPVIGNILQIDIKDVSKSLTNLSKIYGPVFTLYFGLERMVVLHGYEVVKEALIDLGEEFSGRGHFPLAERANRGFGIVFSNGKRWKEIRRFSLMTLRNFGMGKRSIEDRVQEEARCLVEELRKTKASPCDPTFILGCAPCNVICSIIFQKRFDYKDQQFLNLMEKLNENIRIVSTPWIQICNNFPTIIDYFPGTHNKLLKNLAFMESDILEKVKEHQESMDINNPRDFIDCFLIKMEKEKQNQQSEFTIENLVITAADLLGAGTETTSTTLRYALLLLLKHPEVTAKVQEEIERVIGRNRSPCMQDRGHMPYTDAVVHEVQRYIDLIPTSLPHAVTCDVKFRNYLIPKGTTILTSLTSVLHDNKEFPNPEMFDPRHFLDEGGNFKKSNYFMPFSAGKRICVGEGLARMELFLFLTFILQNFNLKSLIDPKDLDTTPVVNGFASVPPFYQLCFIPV

bioavailability [1]: 157%
half-life [1]: 2.36 h
Cmax [1]: 8.29 µM
AUC(0-t) at 24 h ([1]; read-out: AUC0-24 h): 49.9 µM·h
bioavailability [2]: 67%
half-life [2]: 5.75 h
Cmax [2]: 1.32 µM
AUC(0-t) at 24 h ([2]; read-out: AUC0-24 h): 10 µM·h
efflux ratio at 2.5 h, 2 µM ([3]; MDCK-MDR1, pH 7.4, ER=Papp(BA)/Papp(AB)): 1.88
Papp A→B at 2.5 h, 2 µM ([3]; MDCK-MDR1, pH 7.4, pH 7.40, 2.5 hours, 37±1° C., read-out: Apparent permeability coefficient (Papp (AB))): 10.7 ×10⁻⁶ cm/s
CLint scaled at 1 µM [4]: < 8.6 mL/min/kg
fraction unbound at 4 h [5]: 0.354
IC50 (CYP1A2): > 50 µM
IC50 (CYP2C9): > 50 µM
IC50 (CYP2C19): > 50 µM
IC50 (CYP2D6): > 50 µM
IC50 (CYP3A4): > 50 µM
SMILES: CCC(=O)N[C@H]1CCOc2c(-c3ccc4c(c3)CCC(=O)N4C)cncc21 (single isomer, unassigned) [Compound 037]
